# Test results as given in PubChem BioAssay AID1996.
# Conditions: buffer; pH 7.4; 200.0 µM
row,SMILES,solubility kinetic
1,O=C(NC1CCCC(C(F)(F)F)C1)c1ccc([N+](=O)[O-])o1 (configuration not stated),> 45.9 µg/mL
2,NC(=O)c1ccc(SCC(=O)NC2CCCCC2)c([N+](=O)[O-])c1,14.7 µg/mL
3,Cc1cc(NC(=O)COC(=O)c2ccco2)no1,> 37.5 µg/mL
4,O=C(O)CSc1nc2ccccc2s1,> 33.8 µg/mL
5,CSc1ncccc1C(=O)Nc1ccc2c(c1)OCCO2,15.7 µg/mL
6,Cn1cnc(S(=O)(=O)Nc2ccc(OC(F)(F)F)cc2)c1,39.7 µg/mL
7,O=C(CCSc1nc2ccccc2o1)Nc1ccccc1,4.2 µg/mL
8,COc1ccccc1C(=O)O/N=C(\N)c1ccccn1,> 40.7 µg/mL
9,O=[N+]([O-])c1ccc2nc(NS(=O)(=O)c3ccc(F)cc3)sc2c1,49.7 µg/mL
10,O=S(=O)(c1ccc(F)cc1)N1CCCCC1c1cccnc1 (configuration not stated),> 48.1 µg/mL
11,CSc1ccc(/C=C/C(=O)OCC(=O)N(C)CCC#N)cc1,29.9 µg/mL
12,CCN(CC)c1cc(C)c2cc(NC(=O)c3cccs3)ccc2n1,< 0.2 µg/mL
13,O=C(COc1ccccc1/C=C1\SC(=S)NC1=O)Nc1ccc(F)cc1,3 µg/mL
14,Cc1ccc(C(=O)NC2CCCCNC2=O)cc1C (configuration not stated),> 39.1 µg/mL
15,C=CCN1C(=O)C(CC(=O)NCC)SC1=Nc1ccccc1CC (configuration not stated),44.3 µg/mL
16,O=C1NC(=S)NC(=O)C1=Cc1ccc(Br)s1,44.3 µg/mL
17,O=Cc1ccc(OCC(=O)N2CCOCC2)cc1,> 37.4 µg/mL
18,CS(=O)c1ccc(-n2c(=O)n(Cc3ccccc3)c(=O)c3[nH]cnc32)cc1 (configuration not stated),> 57.1 µg/mL
19,O=C1CCC2=C(CCCC2=O)N1,24.2 µg/mL
20,Cc1ccc(NC(=O)c2cccc3ccccc23)cc1,< 0.6 µg/mL
21,CNC(=S)c1cc(C(C)(C)C)c(O)c(C(C)(C)C)c1,13.4 µg/mL
22,O=C(NCc1csc(-c2ccccc2)n1)c1cc(F)cc2c1OCOC2,5.7 µg/mL
23,Nc1ccc(-c2nc3cc([N+](=O)[O-])ccc3o2)cc1,1.1 µg/mL
24,O=C(Cc1cccc(Cl)c1)Nc1ccc(Br)cc1,2.9 µg/mL

row,SMILES,solubility kinetic
1,Cc1cc(C)nc(Sc2ncnc(N)c2[N+](=O)[O-])n1,> 41.7 µg/mL
2,Cn1c(N)c(C(=O)COC(=O)c2ccc(F)cc2Cl)c(=O)n(C)c1=O,4.5 µg/mL
3,C=CCNS(=O)(=O)c1cc2c3c(c1)CCN3C(=O)CC2,> 43.9 µg/mL
4,COC(=O)c1cc(C)sc1NC(=O)CSc1ncccn1,44 µg/mL
5,COc1ccccc1N(CC1CO1)S(=O)(=O)c1ccccc1 (configuration not stated),> 47.9 µg/mL
6,CC(=O)c1ccc(NC(=O)C(C)Sc2nnc(-c3ccncc3)n2C2CC2)cc1 (configuration not stated),> 61.1 µg/mL
7,COc1ccc(CNC(=O)C2CCN(S(C)(=O)=O)CC2)cc1,45.2 µg/mL
8,CC(/C=C1\SC(=Nc2cccnc2)NC1=O)=C\c1ccccc1,1.7 µg/mL
9,O=C(Nc1ccc2c(c1)OCCO2)C(=O)c1c[nH]c2ccccc12,< 0.3 µg/mL
10,Cc1cc(-c2ccccc2)nc(SC(C(=O)O)c2ccccc2)n1 (configuration not stated),48.1 µg/mL
11,CCSC1=C(C#N)C(CC(C)C)C2=C(CCCC2=O)N1 (configuration not stated),41.9 µg/mL
12,Cc1[nH]nc(SCC(=O)N2CCCCCC2)c1[N+](=O)[O-],> 44.8 µg/mL
13,COCCn1cnc2c1c(=O)[nH]c(=O)n2Cc1ccccc1,37 µg/mL
14,CCOC(=O)c1sc(=NC(=O)c2cccc(C)c2)n(C)c1C,0.7 µg/mL
15,Cc1ccc(NC(=O)CN(C)CC(=O)Nc2ccccc2C#N)cc1,> 50.5 µg/mL
16,CCOc1ccccc1NC1=NC2CS(=O)(=O)CC2S1 (configuration not stated),> 46.9 µg/mL
17,COC(=O)C1CCN(C(=O)c2ccc3nccnc3c2)CC1,> 44.9 µg/mL
18,O=C(Nc1ccc(N2CCN(c3ccccc3)CC2)c(F)c1)C1CC1,< 0.2 µg/mL
19,CNC(=O)NC(=O)COc1c(F)c(F)cc(F)c1F,38.2 µg/mL
20,O=C(c1cc(F)cc2c1OCOC2)N1CCN(c2ccc(F)cc2)CC1,> 54.1 µg/mL
21,CCOC(=O)c1ccc(N2C(=O)C3CCCN3C2=S)cc1 (configuration not stated),41 µg/mL
22,COc1cccc(/C=C/C(=O)Nc2cccc(C(C)=O)c2)c1OC,4.3 µg/mL
23,COc1ccc(NC(=O)CCCC(=O)c2ccccc2)cc1,7.1 µg/mL
